Where “and” joins values, the source holds several entries; their conditions need not be identical. Equal entries are not always repeated. Where two headings read alike, the source gives them in different places.
Key:
[1] = molecular target: human monoclonal nicotine-specific antibody IgG2-F018 (HCVR SEQ ID NO:24, LCVR SEQ ID NO:26); experiment: Equilibrium dialysis, affinity and competition; assay type: binding; conditions: for Cross-reactivity: competition with tritium-labeled (S)-(-)-nicotine for binding to IgG2-F018: 56 nM tritium-labeled (S)-(-)-nicotine, IgG2-F018 50 nM, unlabeled compound 1 nM to 100 µM, acetylcholine even at a 4000 fold molar excess
Procedure: Figure 1. Specificity of IgG2-F018. The binding of tritium-labeled (-)-nicotine (56 nM) to IgG2-F018 (50 nM) was measured by equilibrium dialysis in the presence of increasing concentrations of unlabeled (-)-nicotine, (-)-cotinine or acetylcholine. Averages of two independent experiments are given with standard deviation.
(§1) Affinity of antibodies for (S)-(-)-nicotine was determined by equilibrium dialysis using a DispoEquilibriumDialyzer (Harvard Biosciences). Two chambers of the dialyzer were separated by a membrane (10'000 Da cut-off). […] Concentrations of tritium-labeled (S)-(-)-nicotine (Amersham) ranging from 3 to 444 nM were used. Equilibrium dialysis was allowed to proceed for 48-72 h. Aliquots from both sides of the chamber were taken and radioactivity measured in a scintillation counter. Radioactivity corresponding to antibody-bound (S)-(-)-nicotine was calculated by subtracting the radioactivity measured for the chamber containing no antibody from the one containing the antibody. The free (S)-(-)-nicotine concentration was determined from the radioactivity measured for the chamber containing no antibody. The equilibrium dissociation constant (Kd) was derived from the fit of a one-site binding model to the measured bound radioactivity as a function of the free (S)-(-)-nicotine concentration. […]
Cross-reactivity of mAb IgG2-F018 to (-)-cotinine and acetylcholine was determined by co-incubation of 10 fold serial dilutions of these compounds (1 nM to 100 µM) with 56 nM tritium-labeled (S)-(-)-nicotine in the equilibrium dialysis chambers as described above (Figure 1).
(§2) We next determined the affinities of mAbs IgG2-F018, -F063, -J004, -J042 and-N049 for the (R)-(+)-isomer of nicotine. This stereoisomer is present in the tobacco plant. In addition, it can be formed by the combustion process during smoking and has qualitatively similar activities on the central nervous system as (S)-(-)-nicotine (Hukkanen J. et al., 2005, Pharmacol. Rev. 57, 79-115). Thus, the binding of a fixed concentration of tritium-labeled (S)-(-)-nicotine (F018: 56 nM; F063, J004, J042, N049: 111 nM) to each of the antibodies was measured by equilibrium dialysis in the presence of increasing concentrations of unlabeled (R)-(+)-nicotine (1 nM to 100 µM). The equilibrium dissociation constant (Kd) was derived from the fit of a one-site competition model to the measured bound radioactivity as a function of the (R)-(+)-nicotine concentration. […] Table 5. Dissociation constants Kd (nM) of antibody-(R)-(+)-nicotine interactions measured by equilibrium dialysis.

[2] = molecular target: human monoclonal nicotine-specific antibody IgG2-J042 (HCVR SEQ ID NO:28, LCVR SEQ ID NO:37)
Procedure: as §1, §2

[3] = molecular target: human monoclonal nicotine-specific antibody IgG2-F063 (HCVR SEQ ID NO:28, LCVR SEQ ID NO:31)
Procedure: as §1, §2

[4] = molecular target: human monoclonal nicotine-specific antibody IgG2-J004 (HCVR SEQ ID NO:33, LCVR SEQ ID NO:35)
Procedure: as §1, §2

[5] = molecular target: human monoclonal nicotine-specific antibody IgG2-N049 (HCVR SEQ ID NO:39, LCVR SEQ ID NO:41)
Procedure: as §1, §2

[6] = molecular target: polyclonal antibodies against (S)-(-)-nicotine; conditions: read-out: affinity of polyclonal antibodies against (S)-(-)-nicotine; Maurer P. et al., 2005; cited from earlier work
[7] = molecular target: human monoclonal nicotine-specific antibody F063, scFv-Fc fusion (scFv SEQ ID NO:62; HCVR SEQ ID NO:28, LCVR SEQ ID NO:31); conditions: read-out: Dissociation constant Kd, (S)-(-)-nicotine; scFv-Fc 5.4 µg/ml in PBS/2% BSA; tritium-labeled (S)-(-)-nicotine 3 to 444 nM; 48-72 h; mean ± SD of at least 2 independent experiments
Procedure: as §1

[8] = molecular target: human monoclonal nicotine-specific antibody IgG2-N038 (HCVR SEQ ID NO:47, LCVR SEQ ID NO:49); conditions: read-out: Dissociation constant Kd, (S)-(-)-nicotine; IgG2 7.5 µg/ml in PBS/2% BSA; tritium-labeled (S)-(-)-nicotine 3 to 444 nM; 48-72 h; measured only once
Procedure: as §1

[9] = molecular target: human monoclonal nicotine-specific antibody I022, scFv-Fc fusion (scFv SEQ ID NO:70; HCVR SEQ ID NO:43, LCVR SEQ ID NO:45); conditions: read-out: Dissociation constant Kd, (S)-(-)-nicotine; scFv-Fc 5.4 µg/ml in PBS/2% BSA; tritium-labeled (S)-(-)-nicotine 3 to 444 nM; 48-72 h; mean ± SD of at least 2 independent experiments
Procedure: as §1

[10] = molecular target: human monoclonal nicotine-specific antibody F018, scFv-Fc fusion (scFv SEQ ID NO:60; HCVR SEQ ID NO:24, LCVR SEQ ID NO:26); conditions: read-out: Dissociation constant Kd, (S)-(-)-nicotine; scFv-Fc 5.4 µg/ml in PBS/2% BSA; tritium-labeled (S)-(-)-nicotine 3 to 444 nM; 48-72 h; mean ± SD of at least 2 independent experiments
Procedure: as §1

[11] = molecular target: human monoclonal nicotine-specific antibody IgG2-I022 (HCVR SEQ ID NO:43, LCVR SEQ ID NO:45); conditions: read-out: Dissociation constant Kd, (S)-(-)-nicotine; IgG2 7.5 µg/ml in PBS/2% BSA; tritium-labeled (S)-(-)-nicotine 3 to 444 nM; 48-72 h; mean ± SD of at least 2 independent experiments
Procedure: as §1

[12] = molecular target: human monoclonal nicotine-specific antibody J004, scFv-Fc fusion (scFv SEQ ID NO:64; HCVR SEQ ID NO:33, LCVR SEQ ID NO:35); conditions: read-out: Dissociation constant Kd, (S)-(-)-nicotine; scFv-Fc 5.4 µg/ml in PBS/2% BSA; tritium-labeled (S)-(-)-nicotine 3 to 444 nM; 48-72 h; mean ± SD of at least 2 independent experiments
Procedure: as §1

[13] = molecular target: human monoclonal nicotine-specific antibody J042, scFv-Fc fusion (scFv SEQ ID NO:66; HCVR SEQ ID NO:28, LCVR SEQ ID NO:37); conditions: read-out: Dissociation constant Kd, (S)-(-)-nicotine; scFv-Fc 5.4 µg/ml in PBS/2% BSA; tritium-labeled (S)-(-)-nicotine 3 to 444 nM; 48-72 h; mean ± SD of at least 2 independent experiments
Procedure: as §1

[14] = molecular target: human monoclonal nicotine-specific antibody N038, scFv-Fc fusion (scFv SEQ ID NO:72; HCVR SEQ ID NO:47, LCVR SEQ ID NO:49); conditions: read-out: Dissociation constant Kd, (S)-(-)-nicotine; scFv-Fc 5.4 µg/ml in PBS/2% BSA; tritium-labeled (S)-(-)-nicotine 3 to 444 nM; 48-72 h; mean ± SD of at least 2 independent experiments
Procedure: as §1

[15] = molecular target: human monoclonal nicotine-specific antibody N049, scFv-Fc fusion (scFv SEQ ID NO:68; HCVR SEQ ID NO:39, LCVR SEQ ID NO:41); conditions: read-out: Dissociation constant Kd, (S)-(-)-nicotine; scFv-Fc 5.4 µg/ml in PBS/2% BSA; tritium-labeled (S)-(-)-nicotine 3 to 444 nM; 48-72 h; mean ± SD of at least 2 independent experiments
Procedure: as §1

[16] = read-out: Dissociation constant Kd of antibody-(R)-(+)-nicotine interaction, competition with 111 nM tritium-labeled (S)-(-)-nicotine, unlabeled (R)-(+)-nicotine 1 nM to 100 µM, one-site competition model
[17] = read-out: Dissociation constant Kd, (S)-(-)-nicotine, IgG2 7.5 µg/ml in PBS/2% BSA, tritium-labeled (S)-(-)-nicotine 3 to 444 nM, 48-72 h, mean ± SD of at least 2 independent experiments

Structure (SMILES): CN1CCC[C@@H]1c1cccnc1 [(R)-(+)-nicotine]
- Kd ([1]; competition with 56 nM tritium-labeled (S)-(-)-nicotine, unlabeled (R)-(+)-nicotine 1 nM to 100 µM, one-site competition model, read-out: Dissociation constant Kd of antibody-(R)-(+)-nicotine interaction): 3.1 nM
- Kd [2, 16]: 7.7 nM
- Kd [3, 16]: 6.6 nM
- Kd [4, 16]: 12.6 nM
- Kd [5, 16]: 10.5 nM

Structure (SMILES): CN1C(=O)CC[C@H]1c1cccnc1 [(-)-cotinine]
- Cross-reactivity: competition with tritium-labeled (S)-(-)-nicotine for binding to IgG2-F018 [1]: did not effectively compete
- Binding strength relative to (S)-(-)-nicotine (fold less strongly), estimated from the IC50 observed ([1]; equilibrium dialysis competition with 56 nM tritium-labeled (S)-(-)-nicotine): about 1000 fold

Structure (SMILES): CN1CCC[C@H]1c1cccnc1 [(S)-(-)-nicotine]
- Cross-reactivity: competition with tritium-labeled (S)-(-)-nicotine for binding to IgG2-F018 [1]: readily displaced
- Kd ([1]; IgG2 7.5 µg/ml in PBS/2% BSA, tritium-labeled (S)-(-)-nicotine 3 to 444 nM, 48-72 h, mean ± SD of at least 2 independent experiments, read-out: Dissociation constant Kd, (S)-(-)-nicotine): 7 nM and 7.4 nM
- Kd [6]: 30 to 70 nM
- Kd [2, 17]: 30.2 ± 11 nM
- Kd [3, 17]: 31.4 ± 13 nM
- Kd [4, 17]: 64.5 ± 2.2 nM
- Kd [5, 17]: 35.6 ± 3.5 nM
- Kd [7]: 70.5 ± 14 nM
- Kd [8]: 744 nM
- Kd [9]: 42.5 ± 17 nM
- Kd [10]: 11.5 ± 1.5 nM
- Kd [11]: 89.9 ± 9.8 nM
- Kd [12]: 33.3 ± 2 nM
- Kd [13]: 47 ± 3.1 nM
- Kd [14]: 686 ± 58 nM
- Kd [15]: 72.7 ± 5.6 nM

— EP2222702B1, “HUMAN […] SPECIFIC ANTIBODIES” (Cytos Biotechnology AG, priority 2007, dated 2009)
